# Measurements as given in patent publication US20230357179A1, “RAF KINASE INHIBITORS AND METHODS OF USE THEREOF” (Deciphera Pharmaceuticals, LLC, priority 2021, published 2023).
# Tests used:
# [1] = biological target: T1, A-Raf kinase (Homo sapiens, UniProt P10398, Y301D/Y302D); experiment: Biochemical assay for A-Raf.1 (coupled pyruvate kinase/lactate dehydrogenase); details: read-out: ARAF.1 IC50
# T1 construct: purchased Sigma
# How it was run: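 IC50 values came from four-parameter sigmoidal fits of percent inhibition, using rates over the 4 to 5 h window of continuous A340 readings (6 h, 30° C). The coupled PK/LDH system tracked NADH oxidation during 5.55 nM A-Raf activity on 30.1 nM MEK at 1 mM ATP, buffer pH 7.5.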
# [2] = biological target: T2, B-Raf kinase (Homo sapiens, UniProt P15056); experiment: Biochemical assay for B-Raf.1 (coupled pyruvate kinase/lactate dehydrogenase); details: read-out: BRAF.1 IC50
# T2 construct: GST (N); purchased Sigma
# T2 sequence (P15056 416-766): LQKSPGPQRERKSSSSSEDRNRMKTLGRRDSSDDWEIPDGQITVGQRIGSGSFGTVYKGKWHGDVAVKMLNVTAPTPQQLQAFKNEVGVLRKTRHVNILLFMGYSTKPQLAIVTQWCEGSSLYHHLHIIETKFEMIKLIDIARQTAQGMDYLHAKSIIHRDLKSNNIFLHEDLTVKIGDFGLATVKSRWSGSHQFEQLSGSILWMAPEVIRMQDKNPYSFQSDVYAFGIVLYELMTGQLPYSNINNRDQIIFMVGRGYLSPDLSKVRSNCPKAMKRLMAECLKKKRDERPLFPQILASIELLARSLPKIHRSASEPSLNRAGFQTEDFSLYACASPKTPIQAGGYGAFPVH
# How it was run: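 Reaction rates over the 4–5 h window of a continuous 6 h, 30 °C read were converted to percent inhibition and fitted for IC50. B-Raf (0.13 nM) phosphorylated 30.1 nM MEK with 1 mM ATP; ADP coupled via PK/LDH to NADH loss at 340 nm, 1% DMSO final.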
# [3] = biological target: T3, B-Raf (V600E) kinase (Homo sapiens, UniProt P15056, V600E); experiment: Biochemical assay for B-Raf (V600E).1 (coupled pyruvate kinase/lactate dehydrogenase); details: read-out: BRAF V600E.1 IC50
# T3 construct: B-Raf (V600E) residues 416-766 with a; GST (N); purchased SignalChem
# T3 sequence (P15056 416-766 V600E): as the sequence (P15056 416-766) above, with V185E counted along it
# How it was run: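 IC50 came from four-parameter sigmoidal fits of percent inhibition, using reaction rates over 3-4 h. Continuous A340 reading (6 h, 30 °C) of a pyruvate kinase/lactate dehydrogenase-coupled reaction: B-Raf V600E 0.03 nM, MEK 30.1 nM, ATP 1 mM, Tris pH 7.5, 1% DMSO.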
# [4] = system: Miapaca-2 cells; experiment: MiaPaca-2 cell proliferation assay (1), resazurin, 96-well; assay type: cell-based; details: Homo sapiens, MIA PaCa-2, inhibition of cell proliferation
# How it was run: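 Three thousand cells per well in DMEM with 10% FBS and 2.5% horse serum exposed to serially diluted compound in triplicate for 67-72 h at 37 °C, 5% CO2. Viability by resazurin (additional 5-6 h), fluorescence ex 540/em 600 nm; IC50 calculated.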
# T1 sequence (P10398 with tags, fused parts or gaps Y301D/Y302D): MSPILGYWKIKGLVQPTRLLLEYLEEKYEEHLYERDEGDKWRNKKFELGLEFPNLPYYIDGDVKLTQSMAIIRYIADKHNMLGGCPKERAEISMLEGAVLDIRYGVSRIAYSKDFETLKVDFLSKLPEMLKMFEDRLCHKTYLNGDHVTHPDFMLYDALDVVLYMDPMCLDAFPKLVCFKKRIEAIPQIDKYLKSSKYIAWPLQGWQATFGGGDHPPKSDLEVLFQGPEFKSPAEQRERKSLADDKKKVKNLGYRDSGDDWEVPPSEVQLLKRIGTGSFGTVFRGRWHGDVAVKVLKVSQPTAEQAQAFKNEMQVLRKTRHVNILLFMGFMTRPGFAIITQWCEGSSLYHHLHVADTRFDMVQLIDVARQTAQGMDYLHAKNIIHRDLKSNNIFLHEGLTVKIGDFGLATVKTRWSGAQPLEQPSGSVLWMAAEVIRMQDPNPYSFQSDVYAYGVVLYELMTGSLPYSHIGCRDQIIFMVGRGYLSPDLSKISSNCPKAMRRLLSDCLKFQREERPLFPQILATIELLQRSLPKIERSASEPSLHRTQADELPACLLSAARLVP
Compound,IC50 [1] [nM],IC50 [2] [nM],IC50 [3] [nM],IC50 [4] [nM]
CC(=O)Nc1cc(-c2cc(-c3cc(NC(=O)NCCC4(C)CC4)c(F)cc3C)cc(C3CC3)n2)ccn1 [Example 51],> 1000,≤ 100,≤ 100,1000 to 10000
Cc1cc(F)c(NC(=O)NCCC(C)(C)C#N)cc1-c1cccc(-c2ccnc(NC(=O)C3CC3)c2)c1 [Example 66],> 1000,≤ 100,≤ 100,1000 to 10000
Cc1cc(F)c(NC(=O)NCCC2(C)CC2)cc1-c1cc(OCCO)nc(-c2ccnc(NC(=O)C3CC3)c2)c1 [Example 76],100 to 500,≤ 100,≤ 100,1000 to 10000
CC(=O)Nc1cc(-c2cc(-c3cc(NC(=O)N[C@H]4C[C@](C)(F)C4)ccc3C)cc(OCCO)n2)ccn1 [Example 49],100 to 500,≤ 100,≤ 100,1000 to 10000
COC(C)(C)CCNC(=O)Nc1cc(-c2cccc(-c3ccnc(NC(C)=O)c3)c2)c(C)cc1F [Example 71],100 to 500,≤ 100,≤ 100,1000 to 10000
CC(=O)Nc1cc(-c2cc(-c3cc(NC(=O)Nc4ccc(C(F)(F)F)cc4)cnc3C)ccn2)ccn1 [Example 48],> 1000,≤ 100,≤ 100,1000 to 10000
Cc1cc(F)c(NC(=O)NCCC2(C(F)(F)F)CC2)cc1-c1cc(N2CCOCC2)nc(N2CCOCC2)c1 [Example 23],> 1000,≤ 100,≤ 100,1000 to 10000
CC(=O)Nc1cc(-c2cc(-c3cc(NC(=O)NC4CCC(F)(F)CC4)c(F)cc3C)cc(OCCO)n2)ccn1 [Example 63],500 to 1000,≤ 100,≤ 100,1000 to 10000
CC(=O)Nc1cc(-c2cc(-c3cc(NC(=O)NCCC4(C)CC4)c(F)cc3C)cc(OCCO)n2)ccn1 [Example 33],100 to 500,≤ 100,≤ 100,100 to 500
CC(=O)Nc1cc(-c2cc(-c3cc(NC(=O)NC4CC(C)(C)C4)c(F)cc3C)cc(OCCO)n2)ccn1 [Example 47],100 to 500,≤ 100,≤ 100,500 to 1000
CNC(=O)c1cc(-c2cc(-c3cc(NC(=O)Nc4ccnc(C(C)(C)C#N)c4)ccc3C)ccn2)ccn1 [Example 69],> 1000,≤ 100,≤ 100,1000 to 10000
CC(=O)Nc1cc(-c2cc(-c3cc(NC(=O)NCCC4(C)CC4)ccc3C)cc(N3CCOCC3)n2)ccn1 [Example 57],500 to 1000,≤ 100,≤ 100,1000 to 10000
Cc1cc(F)c(NC(=O)NCCC(C)(C)C#N)cc1-c1cccc(-c2cc(NC(=O)C3CC3)ncn2)c1 [Example 67],100 to 500,≤ 100,≤ 100,1000 to 10000
Cc1cc(F)c(NC(=O)NCCC2(C)CC2)cc1-c1cc(OCC(C)(C)O)nc(-c2ccncc2)c1 [Example 34],> 1000,≤ 100,≤ 100,1000 to 10000
Cc1ccc(NC(=O)Nc2cnc(C(F)(F)F)s2)cc1-c1cc(OCCO)nc(N2CCOCC2)c1 [Example 43],> 1000,100 to 500,≤ 100,100 to 500
Cc1ccc(NC(=O)N2CCC(C(F)(F)F)C2)cc1-c1cccc(-c2cc(NC(=O)C3CC3)ncn2)c1 (stereo not drawn) [Example 73],500 to 1000,≤ 100,≤ 100,1000 to 10000
COC(C)(C)CCNC(=O)Nc1ccc(C)c(-c2cc(-c3ccnc(NC(C)=O)c3)n(C)c(=O)c2)c1 [Example 60],> 1000,> 1000,≤ 100,1000 to 10000
CNC(=O)c1cc(-c2cccc(-c3cc(NC(=O)NCCC(C)(C)OC)c(F)cc3C)c2)ccn1 [Example 72],> 1000,100 to 500,≤ 100,1000 to 10000
Cc1ccc(NC(=O)N[C@H]2C[C@](C)(F)C2)cc1-c1cc(-c2ccnc(NC(=O)C3CC3)c2)nc(C2CC2)c1 [Example 61],> 1000,≤ 100,≤ 100,1000 to 10000
CC(=O)Nc1cc(-c2cc(-c3cc(NC(=O)NCCC4(C)CC4)c(F)cc3C)cc(C)n2)ccn1 [Example 55],100 to 500,≤ 100,≤ 100,1000 to 10000
Cc1ccc(NC(=O)Nc2cn(C)nc2C(F)(F)F)cc1-c1cc(OCCO)nc(N2CCOCC2)c1 [Example 42],> 1000,> 1000,≤ 100,1000 to 10000
CC(=O)Nc1cc(-c2cc(-c3cc(NC(=O)NCCC(C)(C)C#N)c(F)cc3C)cc(C3CC3)n2)ccn1 [Example 59],100 to 500,≤ 100,≤ 100,1000 to 10000
Cc1cc(F)c(NC(=O)NCCC2(C(F)(F)F)CC2)cc1-c1cc(OCCO)nc(C2CCOCC2)c1 [Example 24],> 1000,≤ 100,≤ 100,1000 to 10000
Cc1ncc(NC(=O)NCCC(C)(C)F)cc1-c1ccnc(-c2ccnc(NC(=O)C3CC3)c2)c1 [Example 75],> 1000,≤ 100,≤ 100,1000 to 10000
Cc1cc(F)c(NC(=O)NCCC2(C)CC2)cc1-c1cccc(-c2cc(NC(=O)C3CC3)ncn2)c1 [Example 65],> 1000,≤ 100,≤ 100,1000 to 10000

# Other lines, results leading:
IC50 [1] [nM],IC50 [2] [nM],IC50 [3] [nM],IC50 [4] [nM],Compound
> 1000,≤ 100,≤ 100,1000 to 10000,CNC(=O)c1cc(-c2cc(-c3cc(NC(=O)NC4CCCCC4)c(F)cc3C)cc(OCCO)n2)ccn1 [Example 205]
> 1000,≤ 100,≤ 100,1000 to 10000,COC1(CCNC(=O)Nc2cnc(C)c(-c3cccc(-c4cc(NC(=O)C5CC5)ncn4)c3)c2)CC1 [Example 84]
> 1000,≤ 100,≤ 100,1000 to 10000,COC(=O)Nc1cc(-c2cc(-c3cc(NC(=O)NCCC4(C)CC4)c(F)cc3C)cc(OCCO)n2)ccn1 [Example 77]
> 1000,≤ 100,≤ 100,1000 to 10000,Cc1cc(F)c(NC(=O)NCCC2(C)CC2)cc1-c1ccnc(-c2ccnc3c2CC(=O)N3)c1 [Example 79]
500 to 1000,≤ 100,≤ 100,1000 to 10000,Cc1ccc(NC(=O)N2CC[C@H](C(F)(F)F)C2)cc1-c1cncc(-c2cc(NC(=O)C3CC3)ncn2)c1 [Example 195]
> 1000,≤ 100,≤ 100,1000 to 10000,Cc1ncc(NC(=O)NCCC2(C)CC2)cc1-c1nccc(-c2ccnc(NC(=O)C3CC3)c2)n1 [Example 81]
500 to 1000,≤ 100,≤ 100,1000 to 10000,COC(C)(C)CCNC(=O)Nc1cc(-c2nccc(-c3ccnc(NC(=O)C4CC4)c3)n2)c(C)cc1F [Example 83]
> 1000,≤ 100,≤ 100,1000 to 10000,Cc1ccc(NC(=O)N2CC[C@@H](C(F)(F)F)C2)cc1-c1cccc(-c2cc(NC(=O)C3CC3)ncn2)c1 [Example 201]
100 to 500,≤ 100,≤ 100,500 to 1000,Cc1ccc(NC(=O)N2CC[C@@H](C(C)C)C2)cc1-c1cncc(-c2cc(NC(=O)C3CC3)ncn2)c1 [Example 217]
> 1000,≤ 100,≤ 100,1000 to 10000,Cc1cc(F)c(NC(=O)NC2CC(C)(C)C2)cc1-c1cc(OCCO)nc(-c2ccnc(NC(=O)C3CC3)c2)c1 [Example 80]
> 1000,≤ 100,≤ 100,1000 to 10000,Cc1ccc(NC(=O)N2CC[C@H](C(F)(F)F)C2)cc1-c1cccc(-c2cc(NC(=O)C3CC3)ncn2)c1 [Example 200]
